Laboratory results taken from US20260262643A1, “HERBICIDAL BENZOXAZINES” (FMC CORPORATION, priority 2022, published 2026).

What was measured:
[1] = test system: blackgrass; assay: Test A preemergence; type: in vivo, Alopecurus myosuroides
Procedure, shortened: (§1)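 Greenhouse pot test, 10 days. Compound (non-phytotoxic solvent, surfactant) sprayed on soil at seeding or on seedlings at one- to two-leaf stage. Visual injury rated 0–100 against untreated plants.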

[2] = test system: corn; assay: Test A preemergence; type: in vivo, Zea mays
Procedure, shortened: as §1

[3] = test system: foxtail, giant; assay: Test A preemergence; type: in vivo, Setaria faberi
Procedure, shortened: as §1

[4] = test system: goosegrass; assay: Test A preemergence; type: in vivo, Eleusine indica
Procedure, shortened: as §1

[5] = test system: kochia; assay: Test A preemergence; type: in vivo, Bassia scoparia
Procedure, shortened: as §1

[6] = test system: oat, wild; assay: Test A preemergence; type: in vivo, Avena fatua
Procedure, shortened: as §1

[7] = test system: pigweed, palmer; assay: Test A preemergence; type: in vivo, Amaranthus palmeri
Procedure, shortened: as §1

[8] = test system: ragweed; assay: Test A preemergence; type: in vivo, Ambrosia artemisiifolia
Procedure, shortened: as §1

[9] = test system: ryegrass, Italian; assay: Test A preemergence; type: in vivo, Lolium multiflorum
Procedure, shortened: as §1

[10] = test system: soybean; assay: Test A preemergence; type: in vivo, Glycine max
Procedure, shortened: as §1

[11] = test system: wheat; assay: Test A preemergence; type: in vivo, Triticum aestivum
Procedure, shortened: as §1

[12] = test system: blackgrass; assay: Test A postemergence; type: in vivo, Alopecurus myosuroides
Procedure, shortened: as §1

[13] = test system: corn; assay: Test A postemergence; type: in vivo, Zea mays
Procedure, shortened: as §1

[14] = test system: foxtail, giant; assay: Test A postemergence; type: in vivo, Setaria faberi
Procedure, shortened: as §1

[15] = test system: goosegrass; assay: Test A postemergence; type: in vivo, Eleusine indica
Procedure, shortened: as §1

[16] = test system: kochia; assay: Test A postemergence; type: in vivo, Bassia scoparia
Procedure, shortened: as §1

[17] = test system: oat, wild; assay: Test A postemergence; type: in vivo, Avena fatua
Procedure, shortened: as §1

[18] = test system: pigweed, palmer; assay: Test A postemergence; type: in vivo, Amaranthus palmeri
Procedure, shortened: as §1

[19] = test system: ragweed; assay: Test A postemergence; type: in vivo, Ambrosia artemisiifolia
Procedure, shortened: as §1

[20] = test system: ryegrass, Italian; assay: Test A postemergence; type: in vivo, Lolium multiflorum
Procedure, shortened: as §1

[21] = test system: soybean; assay: Test A postemergence; type: in vivo, Glycine max
Procedure, shortened: as §1

[22] = test system: wheat; assay: Test A postemergence; type: in vivo, Triticum aestivum
Procedure, shortened: as §1

[23] = test system: galium; assay: Test A postemergence; type: in vivo, Galium aparine
Procedure, shortened: as §1

[24] = test system: horseweed; assay: Test A postemergence; type: in vivo, Erigeron canadensis
Procedure, shortened: as §1

[25] = test system: barnyardgrass; assay: Test B flooded paddy test; type: in vivo, Echinochloa crus-galli; details: 250 g ai/ha, Flood, 13 days, 0 to 100 scale (0 no effect, 100 complete control)
Procedure, shortened: (§2)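 Percent weed or crop control, judged by eye on a 0–100 scale 13 days post-treatment, reflects compound added to a 3 cm flood maintained over 2-leaf plants in the greenhouse. Missing entries are marked with a dash.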

[26] = test system: ducksalad; assay: Test B flooded paddy test; type: in vivo, Heteranthera limosa; details: 250 g ai/ha, Flood, 13 days, 0 to 100 scale (0 no effect, 100 complete control)
Procedure, shortened: as §2

[27] = test system: rice; assay: Test B flooded paddy test; type: in vivo, Oryza sativa; details: 250 g ai/ha, Flood, 13 days, 0 to 100 scale (0 no effect, 100 complete control)
Procedure, shortened: as §2

[28] = test system: sedge, umbrella; assay: Test B flooded paddy test; type: in vivo, Cyperus difformis; details: 250 g ai/ha, Flood, 13 days, 0 to 100 scale (0 no effect, 100 complete control)
Procedure, shortened: as §2

[29] = 125 g ai/ha, visual injury after 10 days, 0 to 100 scale, 0 is no effect, 100 is complete control
[30] = 500 g ai/ha, 0 to 100 scale (0 no effect, 100 complete control), 10 days
[31] = 125 g ai/ha, postemergence, 10 days, visual injury, 0 to 100 scale (0 no effect, 100 complete control)
[32] = 500 g ai/ha, Postemergence, 0 to 100 scale
[33] = 125 g ai/ha, postemergence, 10 days, 0 to 100 scale, 0 no effect, 100 complete control
[34] = 500 g ai/ha, postemergence, 10 days, visual injury, 0 to 100 scale (0 no effect, 100 complete control)

## Cc1ccc(-n2cncn2)cc1C(=O)N1C[C@H](C)Oc2c(C)cccc21 [Compound 57]
[1]; [29]
  Plant response rating, Blackgrass: 60
[1]; [30]
  Plant response rating, Blackgrass: 90
[2]; [29]
  Plant response rating, Corn: 0
[2]; [30]
  Plant response rating, Corn: 40
[3]; [29]
  Plant response rating, Foxtail, Giant: 100
[3]; [30]
  Plant response rating, Foxtail, Giant: 100
[4]; [29]
  Plant response rating, Goosegrass: 90
[4]; [30]
  Plant response rating, Goosegrass: 100
[5]; [29]
  Plant response rating, Kochia: 40
[5]; [30]
  Plant response rating, Kochia: 30
[6]; [29]
  Plant response rating, Oat, Wild: 50
[6]; [30]
  Plant response rating, Oat, Wild: 90
[7]; [29]
  Plant response rating, Pigweed, Palmer: 30
[7]; [30]
  Plant response rating, Pigweed, Palmer: 100
[8]; [29]
  Plant response rating, Ragweed: 0
[8]; [30]
  Plant response rating, Ragweed: 50
[9]; [29]
  Plant response rating, Ryegrass, Italian: 80
[9]; [30]
  Plant response rating, Ryegrass, Italian: 100
[10]; [29]
  Plant response rating, Soybean: 100
[10]; [30]
  Plant response rating, Soybean: 100
[11]; [29]
  Plant response rating, Wheat: 20
[11]; [30]
  Plant response rating, Wheat: 80
[12]; [31]
  Plant response rating, Blackgrass: 50
[12]; [32]
  Plant response rating, Blackgrass: 80
[13]; [31]
  Plant response rating, Corn: 70
[13]; [32]
  Plant response rating, Corn: 80
[14]; [31]
  Plant response rating, Foxtail, Giant: 90
[14]; [32]
  Plant response rating, Foxtail, Giant: 90
[15]; [31]
  Plant response rating, Goosegrass: 40
[15]; [32]
  Plant response rating, Goosegrass: 90
[16]; [31]
  Plant response rating, Kochia: 10
[16]; [32]
  Plant response rating, Kochia: 30
[17]; [31]
  Plant response rating, Oat, Wild: 80
[17]; [32]
  Plant response rating, Oat, Wild: 90
[18]; [31]
  Plant response rating, Pigweed, Palmer: 20
[18]; [32]
  Plant response rating, Pigweed, Palmer: 50
[19]; [31]
  Plant response rating, Ragweed: 30
[19]; [32]
  Plant response rating, Ragweed: 50
[20]; [31]
  Plant response rating, Ryegrass, Italian: 70
[20]; [32]
  Plant response rating, Ryegrass, Italian: 100
[21]; [31]
  Plant response rating, Soybean: 100
[21]; [32]
  Plant response rating, Soybean: 100
[22]; [31]
  Plant response rating, Wheat: 70
[22]; [32]
  Plant response rating, Wheat: 90
[23]; [31]
  Plant response rating, Galium: 80
[23]; [32]
  Plant response rating, Galium: 100
[24]; [31]
  Plant response rating, Horseweed: 0
[24]; [32]
  Plant response rating, Horseweed: 20
[25]
  Plant response rating, Barnyardgrass: 15
[26]
  Plant response rating, Ducksalad: 65
[27]
  Plant response rating, Rice: 0
[28]
  Plant response rating, Sedge, Umbrella: 90

## CC(C)Oc1ccc(-n2cnc(C(C)C)n2)cc1C(=O)N1C[C@H](C)Oc2c(Cl)cccc21 [Compound 108]
[1]; [29]
  Plant response rating, Blackgrass: 0
[1]; [30]
  Plant response rating, Blackgrass: 40
[2]; [29]
  Plant response rating, Corn: 0
[2]; [30]
  Plant response rating, Corn: 30
[3]; [29]
  Plant response rating, Foxtail, Giant: 90
[3]; [30]
  Plant response rating, Foxtail, Giant: 100
[4]; [29]
  Plant response rating, Goosegrass: 100
[4]; [30]
  Plant response rating, Goosegrass: 100
[5]; [29]
  Plant response rating, Kochia: 0
[5]; [30]
  Plant response rating, Kochia: 80
[6]; [29]
  Plant response rating, Oat, Wild: 30
[6]; [30]
  Plant response rating, Oat, Wild: 30
[7]; [29]
  Plant response rating, Pigweed, Palmer: 100
[7]; [30]
  Plant response rating, Pigweed, Palmer: 100
[8]; [29]
  Plant response rating, Ragweed: 30
[8]; [30]
  Plant response rating, Ragweed: 90
[9]; [29]
  Plant response rating, Ryegrass, Italian: 80
[9]; [30]
  Plant response rating, Ryegrass, Italian: 100
[10]; [29]
  Plant response rating, Soybean: 50
[10]; [30]
  Plant response rating, Soybean: 100
[11]; [29]
  Plant response rating, Wheat: 30
[11]; [30]
  Plant response rating, Wheat: 40
[12]; [33]
  Blackgrass plant response rating: 30
[12]; [34]
  Plant response rating, Blackgrass: 30
[13]; [33]
  Corn plant response rating: 40
[13]; [34]
  Plant response rating, Corn: 60
[14]; [33]
  Foxtail, Giant plant response rating: 70
[14]; [34]
  Plant response rating, Foxtail, Giant: 90
[15]; [33]
  Goosegrass plant response rating: 80
[15]; [34]
  Plant response rating, Goosegrass: 90
[16]; [33]
  Kochia plant response rating: 70
[16]; [34]
  Plant response rating, Kochia: 90
[17]; [33]
  Oat, Wild plant response rating: 20
[17]; [34]
  Plant response rating, Oat, Wild: 70
[18]; [33]
  Pigweed, Palmer plant response rating: 70
[18]; [34]
  Plant response rating, Pigweed, Palmer: 70
[19]; [33]
  Ragweed plant response rating: 60
[19]; [34]
  Plant response rating, Ragweed: 60
[20]; [33]
  Ryegrass, Italian plant response rating: 20
[20]; [34]
  Plant response rating, Ryegrass, Italian: 40
[21]; [33]
  Soybean plant response rating: 100
[21]; [34]
  Plant response rating, Soybean: 100
[22]; [33]
  Wheat plant response rating: 10
[22]; [34]
  Plant response rating, Wheat: 30
[23]; [33]
  Galium plant response rating: 80
[23]; [34]
  Plant response rating, Galium: 90
[24]; [33]
  Horseweed plant response rating: 10
[24]; [34]
  Plant response rating, Horseweed: 20
[25]
  Plant response rating, Barnyardgrass: 55
[26]
  Plant response rating, Ducksalad: 20
[27]
  Plant response rating, Rice: 10
[28]
  Plant response rating, Sedge, Umbrella: 80

## CCCc1ncn(-c2cccc(C(=O)N3C[C@H](C)Oc4c(C)cccc43)c2)n1 [Compound 72]
[1]; [29]
  Plant response rating, Blackgrass: 40
[1]; [30]
  Plant response rating, Blackgrass: 70
[2]; [29]
  Plant response rating, Corn: 30
[2]; [30]
  Plant response rating, Corn: 50
[3]; [29]
  Plant response rating, Foxtail, Giant: 100
[3]; [30]
  Plant response rating, Foxtail, Giant: 100
[4]; [29]
  Plant response rating, Goosegrass: 90
[4]; [30]
  Plant response rating, Goosegrass: 100
[5]; [29]
  Plant response rating, Kochia: 30
[5]; [30]
  Plant response rating, Kochia: 80
[6]; [29]
  Plant response rating, Oat, Wild: 10
[6]; [30]
  Plant response rating, Oat, Wild: 90
[7]; [29]
  Plant response rating, Pigweed, Palmer: 70
[7]; [30]
  Plant response rating, Pigweed, Palmer: 100
[8]; [29]
  Plant response rating, Ragweed: 0
[8]; [30]
  Plant response rating, Ragweed: 0
[9]; [29]
  Plant response rating, Ryegrass, Italian: 100
[9]; [30]
  Plant response rating, Ryegrass, Italian: 100
[10]; [29]
  Plant response rating, Soybean: 30
[10]; [30]
  Plant response rating, Soybean: 60
[11]; [29]
  Plant response rating, Wheat: 0
[11]; [30]
  Plant response rating, Wheat: 30
[12]; [31]
  Plant response rating, Blackgrass: 0
[12]; [32]
  Plant response rating, Blackgrass: 80
[13]; [31]
  Plant response rating, Corn: 30
[13]; [34]
  Plant response rating, Corn: 90
[14]; [31]
  Plant response rating, Foxtail, Giant: 10
[14]; [34]
  Plant response rating, Foxtail, Giant: 50
[15]; [31]
  Plant response rating, Goosegrass: 50
[15]; [34]
  Plant response rating, Goosegrass: 90
[16]; [31]
  Plant response rating, Kochia: 70
[16]; [34]
  Plant response rating, Kochia: 90
[17]; [34]
  Plant response rating, Oat, Wild: 50
[18]; [34]
  Plant response rating, Pigweed, Palmer: 70
[19]; [34]
  Plant response rating, Ragweed: 50
[20]; [34]
  Plant response rating, Ryegrass, Italian: 70
[21]; [34]
  Plant response rating, Soybean: 100
[22]; [34]
  Plant response rating, Wheat: 30
[23]; [31]
  Plant response rating, Galium: 70
[23]; [34]
  Plant response rating, Galium: 100
[24]; [31]
  Plant response rating, Horseweed: 20
[24]; [34]
  Plant response rating, Horseweed: 50
[25]
  Plant response rating, Barnyardgrass: 15
[26]
  Plant response rating, Ducksalad: 55
[27]
  Plant response rating, Rice: 0
[28]
  Plant response rating, Sedge, Umbrella: 15
